Measured values published in patent publication US9758561B2 (priority 2014, dated 2017).
Read-outs that look alike come from different tables or passages of the source.

Biological target: T1, human GLP-1 receptor (Homo sapiens, UniProt P43220)
T1 construct: expressed in transfected cells; host or cells: HEK-293
Assay: cAMP response of HEK-293 cells stably expressing human GLP-1 receptor (HTRF)
Format: cell-based
Conditions: read-out: EC50 hGLP-1R
Description: For preparation, cells were split into T175 culture flasks and grown overnight to near confluency in medium (DMEM/10% FBS). Medium was then removed and cells washed with PBS lacking calcium and magnesium, followed by proteinase treatment with accutase (Sigma-Aldrich cat. no. A6964). Detached cells were washed and resuspended in assay buffer (1×HBSS; 20 mM HEPES, 0.1% BSA, 2 mM IBMX) and cellular density determined. They were then diluted to 400000 cells/ml and 25 μl-aliquots dispensed into the wells of 96-well plates. For measurement, 25 μl of test compound in assay buffer was added to the wells, followed by incubation for 30 minutes at room temperature. […] Potencies of peptidic compounds at the GLP-1, glucagon and GIP receptors were determined by exposing cells expressing human glucagon receptor (hGlucagon R), human GIP receptor (hGIP-R) or human GLP-1 receptor (hGLP-1R) to the listed compounds at increasing concentrations and measuring the formed cAMP as described in Methods.

T1 sequence (P43220 24-463): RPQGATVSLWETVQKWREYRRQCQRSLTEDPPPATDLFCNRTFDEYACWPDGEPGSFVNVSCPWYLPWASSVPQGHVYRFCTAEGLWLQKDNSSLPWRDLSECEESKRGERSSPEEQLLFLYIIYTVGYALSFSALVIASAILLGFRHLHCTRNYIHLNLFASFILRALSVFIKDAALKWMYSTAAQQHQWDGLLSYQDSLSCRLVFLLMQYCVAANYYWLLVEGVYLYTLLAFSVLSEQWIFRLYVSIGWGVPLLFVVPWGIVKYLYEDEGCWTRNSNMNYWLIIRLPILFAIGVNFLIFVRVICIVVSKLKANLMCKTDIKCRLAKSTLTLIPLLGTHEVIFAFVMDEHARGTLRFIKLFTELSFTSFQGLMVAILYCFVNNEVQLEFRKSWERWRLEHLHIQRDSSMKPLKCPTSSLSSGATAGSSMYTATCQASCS

Compound | EC50 (Table 6) [pM] | EC50 (Table 8, comparison Aib vs. Lys in position 27) [pM]
CCCCCCCCCCCCCCCCCC(=O)N[C@@H](CCC(=O)NCCCC[C@H](NC(=O)[C@H](CCC(N)=O)NC(=O)[C@H](CCCCN)NC(=O)[C@H](CO)NC(=O)[C@H](CC(C)C)NC(=O)[C@H](CC(=O)O)NC(=O)[C@H](CO)NC(=O)[C@@H](NC(=O)[C@H](Cc1ccccc1)NC(=O)[C@@H](NC(=O)CNC(=O)[C@H](CCC(N)=O)NC(=O)[C@@H](CO)NC(=O)[C@@H](N)Cc1c[nH]cn1)[C@@H](C)O)[C@@H](C)O)C(=O)N[C@@H](CC(=O)O)C(=O)N[C@@H](CCC(=O)O)C(=O)N[C@@H](CCC(=O)O)C(=O)N[C@@H](C)C(=O)N[C@@H](C)C(=O)N[C@@H](CCCNC(=N)N)C(=O)N[C@@H](CC(C)C)C(=O)N[C@@H](Cc1ccccc1)C(=O)N[C@H](C(=O)N[C@@H](CCC(=O)O)C(=O)N[C@@H](Cc1c[nH]c2ccccc12)C(=O)N[C@@H](CC(C)C)C(=O)NC(C)(C)C(=O)N[C@@H](CCCCN)C(=O)N[C@H](C)C(=O)NCC(=O)N1CCC[C@H]1C(=O)N[C@@H](CO)C(=O)N[C@@H](CO)C(=O)NCC(=O)N[C@@H](C)C(=O)N1CCC[C@H]1C(=O)N1CCC[C@H]1C(=O)N1CCC[C@H]1C(=O)N[C@@H](CO)C(N)=O)[C@@H](C)CC)C(=O)O [SEQ ID NO: 25, H-dSer-Q-G-T-F-T-S-D-L-S-K-Q-K(γE-x70)-D-E-E-A-A-R-L-F-I-E-W-L-Aib-K-dAla-G-P-S-S-G-A-P-P-P-S-NH2] | 2.1 | –
CCCCCCCCCCCCCCCCCC(=O)N[C@@H](CCC(=O)NCCOCCOCC(=O)NCCOCCOCC(=O)NCCCC[C@H](NC(=O)[C@H](CCC(N)=O)NC(=O)[C@H](CCCCN)NC(=O)[C@H](CO)NC(=O)[C@H](CC(C)C)NC(=O)[C@H](CC(=O)O)NC(=O)[C@H](CO)NC(=O)[C@@H](NC(=O)[C@H](Cc1ccccc1)NC(=O)[C@@H](NC(=O)CNC(=O)[C@H](CCC(N)=O)NC(=O)[C@@H](CO)NC(=O)[C@@H](N)Cc1c[nH]cn1)[C@@H](C)O)[C@@H](C)O)C(=O)N[C@@H](CC(=O)O)C(=O)N[C@@H](CCC(=O)O)C(=O)N[C@@H](CCC(=O)O)C(=O)N[C@@H](C)C(=O)N[C@@H](C)C(=O)N[C@@H](CCCNC(=N)N)C(=O)N[C@@H](CC(C)C)C(=O)N[C@@H](Cc1ccccc1)C(=O)N[C@H](C(=O)N[C@@H](CCC(=O)O)C(=O)N[C@@H](Cc1c[nH]c2ccccc12)C(=O)N[C@@H](CC(C)C)C(=O)NC(C)(C)C(=O)N[C@@H](C)C(=O)NCC(=O)NCC(=O)N1CCC[C@H]1C(=O)N[C@@H](CO)C(=O)N[C@@H](CO)C(=O)NCC(=O)N[C@@H](C)C(=O)N1CCC[C@H]1C(=O)N1CCC[C@H]1C(=O)N1CCC[C@H]1C(=O)N[C@@H](CO)C(N)=O)[C@@H](C)CC)C(=O)O [SEQ ID NO: 21, H-dSer-Q-G-T-F-T-S-D-L-S-K-Q-K(AEEAc-AEEAc- E-x70)-D-E-E-A-A-R-L-F-I-E-W-L-Aib-A-G-G-P-S-S-G-A-P-P-P-S-NH2] | 1 | –
CCCCCCCCCCCCCCCC(=O)N[C@@H](CCC(=O)N[C@@H](CCC(=O)NCCCC[C@H](NC(=O)[C@H](CCC(N)=O)NC(=O)[C@H](CCCCN)NC(=O)[C@H](CO)NC(=O)[C@H](CC(C)C)NC(=O)[C@H](CC(=O)O)NC(=O)[C@H](CO)NC(=O)[C@@H](NC(=O)[C@H](Cc1ccccc1)NC(=O)[C@@H](NC(=O)CNC(=O)[C@H](CCC(N)=O)NC(=O)[C@@H](CO)NC(=O)[C@@H](N)Cc1c[nH]cn1)[C@@H](C)O)[C@@H](C)O)C(=O)N[C@@H](CC(=O)O)C(=O)N[C@@H](CCC(=O)O)C(=O)N[C@@H](CCC(=O)O)C(=O)N[C@@H](C)C(=O)N[C@@H](C)C(=O)N[C@@H](CCCNC(=N)N)C(=O)N[C@@H](CC(C)C)C(=O)N[C@@H](Cc1ccccc1)C(=O)N[C@H](C(=O)N[C@@H](CCC(=O)O)C(=O)N[C@@H](Cc1c[nH]c2ccccc12)C(=O)N[C@@H](CC(C)C)C(=O)NC(C)(C)C(=O)N[C@@H](CO)C(=O)NCC(=O)NCC(=O)N1CCC[C@H]1C(=O)N[C@@H](CO)C(=O)N[C@@H](CO)C(=O)NCC(=O)N[C@@H](C)C(=O)N1CCC[C@H]1C(=O)N1CCC[C@H]1C(=O)N1CCC[C@H]1C(=O)N[C@@H](CO)C(N)=O)[C@@H](C)CC)C(=O)O)C(=O)O [SEQ ID NO: 15, H-dSer-Q-G-T-F-T-S-D-L-S-K-Q-K(γE-γE-x53)-D-E-E-A-A-R-L-F-I-E-W-L-Aib-S-G-G-P-S-S-G-A-P-P-P-S-NH2] | 1.8 | –
CCCCCCCCCCCCCCCC(=O)N[C@@H](CCC(=O)N[C@@H](CCC(=O)NCCCC[C@H](NC(=O)[C@H](CCC(N)=O)NC(=O)[C@H](CCCCN)NC(=O)[C@H](CO)NC(=O)[C@H](CC(C)C)NC(=O)[C@H](CC(=O)O)NC(=O)[C@H](CO)NC(=O)[C@@H](NC(=O)[C@H](Cc1ccccc1)NC(=O)[C@@H](NC(=O)CNC(=O)[C@H](CCC(N)=O)NC(=O)[C@H](CO)NC(=O)[C@@H](N)Cc1c[nH]cn1)[C@@H](C)O)[C@@H](C)O)C(=O)N[C@@H](CC(=O)O)C(=O)N[C@@H](CCC(=O)O)C(=O)N[C@@H](CCC(=O)O)C(=O)N[C@@H](C)C(=O)N[C@@H](C)C(=O)N[C@@H](CCCNC(=N)N)C(=O)N[C@@H](CC(C)C)C(=O)N[C@@H](Cc1ccccc1)C(=O)N[C@H](C(=O)N[C@@H](CCC(=O)O)C(=O)N[C@@H](Cc1c[nH]c2ccccc12)C(=O)N[C@@H](CC(C)C)C(=O)N[C@@H](CCCCN)C(=O)N[C@@H](C)C(=O)NCC(=O)NCC(=O)N1CCC[C@H]1C(=O)N[C@@H](CO)C(=O)N[C@@H](CO)C(=O)NCC(=O)N[C@@H](C)C(=O)N1CCC[C@H]1C(=O)N1CCC[C@H]1C(=O)N1CCC[C@H]1C(=O)N[C@@H](CO)C(N)=O)[C@@H](C)CC)C(=O)O)C(=O)O [SEQ ID NO: 33, H-S-Q-G-T-F-T-S-D-L-S-K-Q-K(γE-γE-x53)-DEEAARLFIEWLKAGGPSSGAPPPS-NH2, reference compound] | – | 1
CCCCCCCCCCCCCCCCCC(=O)NCCOCCOCC(=O)NCCOCCOCC(=O)NCCOCCOCC(=O)NCCCC[C@H](NC(=O)[C@H](CCC(N)=O)NC(=O)[C@H](CCCCN)NC(=O)[C@H](CO)NC(=O)[C@H](CC(C)C)NC(=O)[C@H](CC(=O)O)NC(=O)[C@H](CO)NC(=O)[C@@H](NC(=O)[C@H](Cc1ccccc1)NC(=O)[C@@H](NC(=O)CNC(=O)[C@H](CCC(N)=O)NC(=O)[C@@H](CO)NC(=O)[C@@H](N)Cc1c[nH]cn1)[C@@H](C)O)[C@@H](C)O)C(=O)N[C@@H](CC(=O)O)C(=O)N[C@@H](CCC(=O)O)C(=O)N[C@@H](CCC(=O)O)C(=O)N[C@@H](C)C(=O)N[C@@H](C)C(=O)N[C@@H](CCCNC(=N)N)C(=O)N[C@@H](CC(C)C)C(=O)N[C@@H](Cc1ccccc1)C(=O)N[C@H](C(=O)N[C@@H](CCC(=O)O)C(=O)N[C@@H](Cc1c[nH]c2ccccc12)C(=O)N[C@@H](CC(C)C)C(=O)NC(C)(C)C(=O)N[C@@H](C)C(=O)NCC(=O)NCC(=O)N1CCC[C@H]1C(=O)N[C@@H](CO)C(=O)N[C@@H](CO)C(=O)NCC(=O)N[C@@H](C)C(=O)N1CCC[C@H]1C(=O)N1CCC[C@H]1C(=O)N1CCC[C@H]1C(=O)N[C@@H](CO)C(N)=O)[C@@H](C)CC [SEQ ID NO: 22, H-dSer-Q-G-T-F-T-S-D-L-S-K-Q-K(AEEAc-AEEAc-AEEAc-x70)-D-E-E-A-A-R-L-F-I-E-W-L-Aib-A-G-G-P-S-S-G-A-P-P-P-S-NH2] | 1.8 | –
CCCCCCCCCCCCCCCCCC(=O)N[C@@H](CCC(=O)NCCCC[C@H](NC(=O)[C@H](CCC(N)=O)NC(=O)[C@H](CCCCN)NC(=O)[C@H](CO)NC(=O)[C@H](CC(C)C)NC(=O)[C@H](CC(=O)O)NC(=O)[C@H](CO)NC(=O)[C@@H](NC(=O)[C@H](Cc1ccccc1)NC(=O)[C@@H](NC(=O)CNC(=O)[C@H](Cc1c[nH]cn1)NC(=O)[C@@H](CO)NC(=O)[C@@H](N)Cc1c[nH]cn1)[C@@H](C)O)[C@@H](C)O)C(=O)N[C@@H](CC(=O)O)C(=O)N[C@@H](CCC(=O)O)C(=O)N[C@@H](CCC(=O)O)C(=O)N[C@@H](C)C(=O)N[C@@H](C)C(=O)N[C@@H](CCCNC(=N)N)C(=O)N[C@@H](CC(C)C)C(=O)N[C@@H](Cc1ccccc1)C(=O)N[C@H](C(=O)N[C@@H](CCC(=O)O)C(=O)N[C@@H](Cc1c[nH]c2ccccc12)C(=O)N[C@@H](CC(C)C)C(=O)NC(C)(C)C(=O)N[C@@H](C)C(=O)NCC(=O)NCC(=O)N1CCC[C@H]1C(=O)N[C@@H](CO)C(=O)N[C@@H](CO)C(=O)NCC(=O)N[C@@H](C)C(=O)N1CCC[C@H]1C(=O)N1CCC[C@H]1C(=O)N1CCC[C@H]1C(=O)N[C@@H](CO)C(N)=O)[C@@H](C)CC)C(=O)O [SEQ ID NO: 8, H-dSer-H-G-T-F-T-S-D-L-S-K-Q-K(γE-x70)-D-E-E-A-A-R-L-F-I-E-W-L-Aib-A-G-G-P-S-S-G-A-P-P-P-S-NH2] | 1.8 | –
CCCCCCCCCCCCCCCC(=O)N[C@@H](CCC(=O)N[C@@H](CCC(=O)NCCCC[C@H](NC(=O)[C@H](CCC(N)=O)NC(=O)[C@H](CCCCN)NC(=O)[C@H](CO)NC(=O)[C@H](CC(C)C)NC(=O)[C@H](CC(=O)O)NC(=O)[C@H](CO)NC(=O)[C@@H](NC(=O)[C@H](Cc1ccccc1)NC(=O)[C@@H](NC(=O)CNC(=O)[C@H](Cc1c[nH]cn1)NC(=O)[C@@H](CO)NC(=O)[C@@H](N)Cc1c[nH]cn1)[C@@H](C)O)[C@@H](C)O)C(=O)N[C@@H](CCC(=O)O)C(=O)N[C@@H](CCC(=O)O)C(=O)N[C@@H](CCC(=O)O)C(=O)N[C@@H](C)C(=O)N[C@@H](C)C(=O)N[C@@H](CCCNC(=N)N)C(=O)N[C@@H](CC(C)C)C(=O)N[C@@H](Cc1ccccc1)C(=O)N[C@H](C(=O)N[C@@H](CCC(=O)O)C(=O)N[C@@H](Cc1c[nH]c2ccccc12)C(=O)N[C@@H](CC(C)C)C(=O)NC(C)(C)C(=O)N[C@@H](CCCCN)C(=O)N[C@H](C)C(=O)NCC(=O)N1CCC[C@H]1C(=O)N[C@@H](CO)C(=O)N[C@@H](CO)C(=O)NCC(=O)N[C@@H](C)C(=O)N1CCC[C@H]1C(=O)N1CCC[C@H]1C(=O)N1CCC[C@H]1C(=O)N[C@@H](CO)C(N)=O)[C@@H](C)CC)C(=O)O)C(=O)O [SEQ ID NO: 27, H-dSer-H-G-T-F-T-S-D-L-S-K-Q-K(γE-γE-x53)-E-E-E-A-A-R-L-F-I-E-W-L-Aib-K-dAla-G-P-S-S-G-A-P-P-P-S-NH2] | 2.1 | –
